According to US20240245677A1, “SELECTED COMPOUNDS FOR TARGETED DEGRADATION OF BRD9” (C4 THERAPEUTICS, INC., priority 2021, published 2024):

Assays:
[1] = tested on: cryopreserved hepatocytes from CD-1 mice; assay: Mouse Hepatocyte Stability Assay; format: in vitro ADME
Procedure: (§1) The metabolic stability of Compound 1 was evaluated using cryopreserved hepatocytes from mice, rats, dogs, cynomolgus monkeys, and humans.
(§2) 50 μL of 1 mM intermediate solutions for each test compound was prepared by adding 5 μL of 10 mM stock solution to 45 μL of a 1:1 mixture of water and acetonitrile. A 2 μM working stocks for each test compound were prepared in incubation media, InvitroGRO™ KHB (Bio IVT, Westbury, NY, USA), by adding 2 μL of 1 mM intermediate stock to 998 μL of incubation media.
(§3) To thaw the hepatocytes, InvitroGRO™ HT thawing medium (BioIVT, Westbury, NY, USA) was prewarmed to 37° C., and 48 mL of warmed thawing medium was transferred to a sterile 50 mL conical tube. The hepatocyte vial was removed from the liquid nitrogen Dewar, and gently thawed in a water bath at 37° C. for 1-2 minutes, then the contents of the vial were emptied into a conical tube with prewarmed InvitroGRO HT medium. 1 mL of prewarmed InvitroGRO HT medium was added to each emptied hepatocyte vial to resuspend any remaining cells, and the contents were pipetted into the hepatocyte suspension. The tube containing the hepatocyte suspension was centrifuged at 50*g for 5 minutes. The supernatant was removed carefully, and the remaining pellet was resuspended by adding 1 mL of incubation media, InvitroGRO KHB, and gently shaking until there were no clumps.
(§4) Cell viability was determined using the trypan blue method. 25 μL of hepatocyte cell suspension was added to a trypan blue (TB) solution (containing 775 μL InvitroGRO KHB and 200 μL of Trypan Blue). Cell count was taken using a hemacytometer.
(§5) For mouse hepatocytes, 200 μL of hepatocytes (0.8×10^6 cells/mL) were added to the wells of a 48 well plate (Catalog No. 92048, TPP Techno Plastic Products AG, Trasadingen, Switzerland) and pre-incubated for 30 minutes at 37° C. For rat, dog, monkey, […], 200 μL of hepatocytes (2×10^6 cells/mL) were added to the wells of a 48 well plate (Catalog No. 92048, TPP Techno Plastic Products AG, Trasadingen, Switzerland) and pre-incubated for 30 minutes at 37° C.
(§6) For all species of hepatocytes, once the pre-incubation period was complete, 200 μL of 2 μM working stock of test compound was added to the wells of the plate, and the plate was vortexed on a Vibramax™ 100 (P/N 544-21200-00, Heidolph Instruments GmbH & Co. KG, Schwabach, Germany) at 500 rpm in a 37° C. CO2 incubator (Model No. 51026280, ThermoFisher Scientific, Waltham, MA, USA). At each time point of 0, 15, 30, 60, 90, and 120 minutes, 50 μL of incubation mixture was precipitated with 200 μL of acetonitrile containing internal standard.
(§7) At the end of the experiment, the samples were centrifuged at 4000 rpm for 10 minutes. The supernatant was collected and diluted with an equal amount of water, and vortexed for 5 minutes at 900 rpm in MixMate® (Model No. 5353, Eppendorf SE, Hamburg, Germany).
(§8) The supernatant samples were submitted for LC-MS/MS analysis.
(§9) Calculations of the results included the following: […]

[2] = Mouse Hepatocyte Stability Assay; format: in vitro ADME; conditions: CD-1, cryopreserved hepatocytes
Procedure: as §1, §2, §3, §4, §5, §6, §7, §8, §9

COc1cc(-c2cn(C)c(=O)c(C)c2C)cc(OC)c1CN1CC[C@H](N2CCN(c3ccc(N[C@H]4CCC(=O)NC4=O)cc3F)CC2)C(F)(F)C1 [Compound 1, (S)-3-((4-(4-((S)-1-(2,6-dimethoxy-4-(1,4,5-trimethyl-6-oxo-1,6-dihydropyridin-3-yl)benzyl)-3,3-difluoropiperidin-4-yl)piperazin-1-yl)-3-fluorophenyl)amino)-piperidine-2,6-dione]
CLh int in vivo [1]: 44.94 mL/min/Kg body wt. | CLhb scaled well stirred [1]: 30.0 mL/min/kg body wt. | half-life at 1 µM [2]: > 2 h | hepatocyte CLint at 1 µM ([2]; read-out: CL int cells): 4.26 µL/min/1e6 cells
